From the NIST ThermoML archive (doi:10.1021/je049960h)
Numbers after ± are expanded uncertainties.

Assay: xn = mol fraction of the nth substance listed
Conditions: 101.3 kPa, Liquid; for viscosity: Capillary tube (Ostwald / Ubbelohde) method; for mass density: Pycnometric method; for thermal conductivity: Hot wire method

Structure (SMILES): CC(O)CO (centres undefined) [1,2-propanediol] + O
- viscosity (296.65 K, x1 = 0.25): 7.39 ± 0.15 mPa·s
- mass density (296.65 K, x1 = 0.25): 1040 ± 2 kg/m3
- viscosity (296.8 K, x1 = 0.75): 32.4 ± 0.7 mPa·s
- mass density (296.8 K, x1 = 0.75): 1038 ± 2 kg/m3
- viscosity (297.05 K, x1 = 0.5): 17.5 ± 0.4 mPa·s
- mass density (297.05 K, x1 = 0.5): 1042 ± 2 kg/m3
- thermal conductivity (298.5 K, x1 = 0.75): 0.212 ± 0.004 W/m/K
- thermal conductivity (298.9 K, x1 = 0.5): 0.243 ± 0.005 W/m/K
- thermal conductivity (299.6 K, x1 = 0.25): 0.322 ± 0.007 W/m/K
- viscosity (313.05 K, x1 = 0.25): 3.9 ± 0.08 mPa·s
- viscosity (313.05 K, x1 = 0.5): 8.47 ± 0.18 mPa·s
- viscosity (313.05 K, x1 = 0.75): 14.4 ± 0.3 mPa·s
- mass density (313.05 K, x1 = 0.25): 1028 ± 2 kg/m3
- mass density (313.05 K, x1 = 0.5): 1029 ± 2 kg/m3
- mass density (313.05 K, x1 = 0.75): 1026 ± 2 kg/m3
- thermal conductivity (322.1 K, x1 = 0.25): 0.337 ± 0.007 W/m/K
- thermal conductivity (323.7 K, x1 = 0.75): 0.214 ± 0.004 W/m/K
- thermal conductivity (324.2 K, x1 = 0.5): 0.25 ± 0.005 W/m/K
- viscosity (333.1 K, x1 = 0.25): 2.12 ± 0.04 mPa·s
- viscosity (333.1 K, x1 = 0.5): 4.14 ± 0.09 mPa·s
- viscosity (333.1 K, x1 = 0.75): 6.46 ± 0.14 mPa·s
- mass density (333.1 K, x1 = 0.25): 1013 ± 2 kg/m3
- mass density (333.1 K, x1 = 0.5): 1013 ± 2 kg/m3
- mass density (333.1 K, x1 = 0.75): 1010 ± 2 kg/m3
- thermal conductivity (347.2 K, x1 = 0.25): 0.348 ± 0.007 W/m/K
- thermal conductivity (348.2 K, x1 = 0.75): 0.215 ± 0.004 W/m/K
- thermal conductivity (349.1 K, x1 = 0.5): 0.254 ± 0.005 W/m/K
- viscosity (353.05 K, x1 = 0.25): 1.32 ± 0.03 mPa·s
- viscosity (353.05 K, x1 = 0.75): 3.45 ± 0.07 mPa·s
- mass density (353.05 K, x1 = 0.25): 996.5 ± 2 kg/m3
- mass density (353.05 K, x1 = 0.5): 996.8 ± 2 kg/m3
- mass density (353.05 K, x1 = 0.75): 993.8 ± 2 kg/m3
- viscosity (353.1 K, x1 = 0.5): 2.36 ± 0.05 mPa·s
- viscosity (363.3 K, x1 = 0.25): 1.09 ± 0.02 mPa·s
- mass density (363.3 K, x1 = 0.25): 988 ± 2 kg/m3
- viscosity (363.35 K, x1 = 0.75): 2.66 ± 0.06 mPa·s
- mass density (363.35 K, x1 = 0.75): 985.1 ± 2 kg/m3
- viscosity (363.4 K, x1 = 0.5): 1.84 ± 0.04 mPa·s
- mass density (363.4 K, x1 = 0.5): 987.9 ± 2 kg/m3
- thermal conductivity (372.1 K, x1 = 0.25): 0.353 ± 0.007 W/m/K
- thermal conductivity (372.1 K, x1 = 0.5): 0.255 ± 0.005 W/m/K
- thermal conductivity (372.8 K, x1 = 0.75): 0.215 ± 0.004 W/m/K
- viscosity (373.45 K, x1 = 0.25): 0.915 ± 0.019 mPa·s
- mass density (373.45 K, x1 = 0.25): 979.3 ± 2 kg/m3
- viscosity (378.35 K, x1 = 0.75): 1.87 ± 0.04 mPa·s
- mass density (378.35 K, x1 = 0.75): 971.6 ± 2 kg/m3
- mass density (381.55 K, x1 = 0.25): 971.3 ± 2 kg/m3
- viscosity (383.5 K, x1 = 0.5): 1.22 ± 0.03 mPa·s
- mass density (383.5 K, x1 = 0.5): 970.3 ± 2 kg/m3
- viscosity (384.15 K, x1 = 0.25): 0.778 ± 0.016 mPa·s
- viscosity (388.5 K, x1 = 0.75): 1.52 ± 0.03 mPa·s
- mass density (388.5 K, x1 = 0.75): 963.2 ± 2 kg/m3
- mass density (390.55 K, x1 = 0.25): 963.4 ± 2 kg/m3
- viscosity (394.55 K, x1 = 0.25): 0.657 ± 0.014 mPa·s
- mass density (395.75 K, x1 = 0.5): 958.1 ± 2 kg/m3
- thermal conductivity (396 K, x1 = 0.75): 0.214 ± 0.004 W/m/K
- thermal conductivity (396.4 K, x1 = 0.25): 0.353 ± 0.007 W/m/K
- thermal conductivity (397.1 K, x1 = 0.5): 0.255 ± 0.005 W/m/K
- viscosity (398.3 K, x1 = 0.75): 1.27 ± 0.03 mPa·s
- mass density (398.3 K, x1 = 0.75): 954.2 ± 2 kg/m3
- viscosity (398.75 K, x1 = 0.5): 0.952 ± 0.02 mPa·s
- mass density (407.45 K, x1 = 0.5): 947.1 ± 2 kg/m3
- mass density (407.75 K, x1 = 0.25): 947.5 ± 2 kg/m3
- viscosity (408.15 K, x1 = 0.75): 1.08 ± 0.02 mPa·s
- mass density (408.15 K, x1 = 0.75): 944.7 ± 2 kg/m3
- viscosity (411.45 K, x1 = 0.5): 0.793 ± 0.017 mPa·s
- viscosity (411.75 K, x1 = 0.25): 0.525 ± 0.011 mPa·s
- mass density (411.75 K, x1 = 0.75): 940.7 ± 2 kg/m3
- thermal conductivity (420.2 K, x1 = 0.5): 0.253 ± 0.005 W/m/K
- thermal conductivity (420.4 K, x1 = 0.25): 0.347 ± 0.007 W/m/K
- thermal conductivity (420.8 K, x1 = 0.75): 0.212 ± 0.004 W/m/K
- mass density (424.55 K, x1 = 0.25): 930.2 ± 1.9 kg/m3
- mass density (424.95 K, x1 = 0.5): 929.6 ± 1.9 kg/m3
- mass density (428.15 K, x1 = 0.75): 924.7 ± 1.9 kg/m3
- viscosity (428.95 K, x1 = 0.5): 0.618 ± 0.013 mPa·s
- viscosity (429.55 K, x1 = 0.25): 0.426 ± 0.009 mPa·s
- mass density (439.95 K, x1 = 0.5): 914.7 ± 1.9 kg/m3
- thermal conductivity (440.4 K, x1 = 0.25): 0.338 ± 0.007 W/m/K
- thermal conductivity (440.8 K, x1 = 0.5): 0.249 ± 0.005 W/m/K
- mass density (441.45 K, x1 = 0.75): 912.7 ± 1.9 kg/m3
- thermal conductivity (442 K, x1 = 0.75): 0.21 ± 0.004 W/m/K
- viscosity (443.95 K, x1 = 0.5): 0.517 ± 0.011 mPa·s
- mass density (444.55 K, x1 = 0.25): 908.3 ± 1.9 kg/m3
- viscosity (449.55 K, x1 = 0.25): 0.344 ± 0.007 mPa·s
